In PubChem BioAssay AID1963834 (Molecular Pharmacology Branch, DTP, NCI, 2024):

System: 873145-292-R-J1-PDC complex spheroid viability
Test: Anticancer human tumor 873145-292-R-J1-PDC patient-derived renal clear cell carcinoma cell line growth inhibition [POLQ]
Details: for IC50: curve of first compound; for viability, T/C: stronger effect = lower value
Summary of the method: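 Patient-derived tumour cells were co-cultured with HUVEC and mesenchymal stem cells as multicellular spheroids at 37 °C. They were treated with POLQ inhibitors (novobiocin, ART-558, RP6685) alone or combined with other agents. Top concentrations were at or near clinical Cmax (otherwise 10 microM; SN-38 at 1 microM), decreasing in half-log steps.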
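Note: spheroids exposed to compounds for 7 days before viability readout.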
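Throughout, for viability, T/C: luminescence signal used as surrogate for viable cell content; 100% = DMSO vehicle control viability.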

For `COc1cccc(OCCCN)c1-c1cc(Nc2cnc(C#N)cn2)n[nH]1` + COC1C(OC(N)=O)C(O)C(Oc2ccc3c(O)c(NC(=O)c4ccc(O)c(CC=C(C)C)c4)c(=O)oc3c2C)OC1(C)C, the IC50 (second compound 0.0316 µM) was > 1000 nM, the IC50 (second compound 0.1 µM) was > 1000 nM and the IC50 (second compound 0.316 µM) was > 1000 nM. For the same molecule, the IC50 (second compound 1 µM) was > 1000 nM, the IC50 (second compound 3.16 µM) was > 1000 nM and the IC50 (second compound 10 µM) was > 1000 nM. For the same molecule, the viability, T/C (second compound 0.0316 µM, first compound 0.00316 µM) was 102%, the viability, T/C (second compound 0.0316 µM, first compound 0.01 µM) was 82.4% and the viability, T/C (second compound 0.0316 µM, first compound 0.0316 µM) was 62.8%. It also gave a viability, T/C (second compound 0.0316 µM, first compound 0.1 µM) of 61.3%, a viability, T/C (second compound 0.0316 µM, first compound 0.316 µM) of 61% and a viability, T/C (second compound 0.0316 µM, first compound 1 µM) of 68.7%. The viability, T/C (second compound 0.1 µM, first compound 0.00316 µM) was 106%, the viability, T/C (second compound 0.1 µM, first compound 0.01 µM) was 93.8% and the viability, T/C (second compound 0.1 µM, first compound 0.0316 µM) was 71.1%. The viability, T/C (second compound 0.1 µM, first compound 0.1 µM) was 71.5%, the viability, T/C (second compound 0.1 µM, first compound 0.316 µM) was 62.1% and the viability, T/C (second compound 0.1 µM, first compound 1 µM) was 72.3%. It also gave a viability, T/C (second compound 0.316 µM, first compound 0.00316 µM) of 104%, a viability, T/C (second compound 0.316 µM, first compound 0.01 µM) of 84.8% and a viability, T/C (second compound 0.316 µM, first compound 0.0316 µM) of 64.7%. It also gave a viability, T/C (second compound 0.316 µM, first compound 0.1 µM) of 57.8%, a viability, T/C (second compound 0.316 µM, first compound 0.316 µM) of 71.1% and a viability, T/C (second compound 0.316 µM, first compound 1 µM) of 62.1%. For the same molecule, the viability, T/C (second compound 1 µM, first compound 0.00316 µM) was 97.9%, the viability, T/C (second compound 1 µM, first compound 0.01 µM) was 76.3% and the viability, T/C (second compound 1 µM, first compound 0.0316 µM) was 62.5%. The viability, T/C (second compound 1 µM, first compound 0.1 µM) was 62.4%, the viability, T/C (second compound 1 µM, first compound 0.316 µM) was 58.7% and the viability, T/C (second compound 1 µM, first compound 1 µM) was 72.9%. It also gave a viability, T/C (second compound 3.16 µM, first compound 0.00316 µM) of 108%, a viability, T/C (second compound 3.16 µM, first compound 0.01 µM) of 72% and a viability, T/C (second compound 3.16 µM, first compound 0.0316 µM) of 71.9%. The viability, T/C (second compound 3.16 µM, first compound 0.1 µM) was 63.8%, the viability, T/C (second compound 3.16 µM, first compound 0.316 µM) was 68.4% and the viability, T/C (second compound 3.16 µM, first compound 1 µM) was 68.7%. The viability, T/C (second compound 10 µM, first compound 0.00316 µM) was 90.8%, the viability, T/C (second compound 10 µM, first compound 0.01 µM) was 80% and the viability, T/C (second compound 10 µM, first compound 0.0316 µM) was 73.1%. For the same molecule, the viability, T/C (second compound 10 µM, first compound 0.1 µM) was 62.6%, the viability, T/C (second compound 10 µM, first compound 0.316 µM) was 66.1% and the viability, T/C (second compound 10 µM, first compound 1 µM) was 78.3%.
